# From patent US10322127B2, “Methods and kits to predict therapeutic outcome of BTK inhibitors” (THE TRANSLATIONAL GENOMICS RESEARCH INSTITUTE, priority 2010, dated 2019)
# What was measured:
# [1] = test system: BCR (B cell receptor) signaling in human B cells; settings: cited from earlier work
# [2] = test system: collagen-induced arthritis; settings: mice, orally dosed; cited from earlier work
# [3] = test system: pancreatic cancer cell lines with a DPC4 deletion (BxPC-3 and CFPAC-1) vs DPC4 wildtype (MIA PaCa-2 and PANC-1); assay: Cell viability by Cell Titer-Glo after 96 hours of drug treatment, pancreatic cancer cell lines; format: cell-based, human; settings: BxPC-3 and CFPAC-1 vs MIA PaCa-2 and PANC-1, FIG. 5A, *p<0.05, **p<0.0001
# Description: Cell viability was measured by Cell Titer-Glo after 96 hours of drug treatment.
# [4] = test system: T cell receptor (TCR) signaling; settings: cited from earlier work
# MRL/lpr lupus model = settings: cited from earlier work
# [5] = test system: mast cell and basophil degranulation; settings: cited from earlier work
smiles,measurement,setting,value
C=CC(=O)N1CCC[C@@H](n2nc(-c3ccc(Oc4ccccc4)cc3)c3c(N)ncnc32)C1 [PCI-32765],effect on BCR signaling,[1],blocks
same,course of collagen induced arthritis,[2],reversed
same,level of circulating autoantibodies,[2],reduced
same,activity (inhibition of cell growth) in DPC4 deleted vs DPC4 wildtype pancreatic cancer cell lines,[3],more activity
same,effect on TCR signaling,[4],does not affect
same,auto-antibody production and development of kidney disease,MRL/lpr lupus model,inhibited
same,inhibition of mast cell and basophil degranulation,[5],potent inhibitor
